Experimental data from patent publication US8367873B2, “Phenyl-substituted bicyclooctane-1,3-dione derivatives” (Bayer Cropscience AG, priority 2008, dated 2013).

Experiments:
Assay type in all cases: in vivo
Echinocloa crus-galli = experiment: Herbicidal post-emergence action; conditions: post-emergence method; for herbicidal effect against ECHCG (Echinochloa crus-galli): 80 g/ha; for pest or weed control at 80 g/ha: Echinochloa crus-galli, 504 h, read-out: herbicidal effect against ECHCG (Echinochloa crus-galli)
Procedure: (§1) Seeds of monocotylidonous and dicotylidonous weed and crop plants are placed in sandy loam in wood fibre pots, covered with soil and cultivated in a greenhouse under good growth conditions. Two to three weeks after sowing, the test plants are treated at the one-leaf stage. The test compounds, formulated as wettable powders (WP), are then with a water application rate of 600 l/ha (converted), with 0.2% of wetting agent added, sprayed onto the green parts of the plants in different amounts. After the test plants have been kept in the greenhouse under optimum growth conditions for about three weeks, the effect of the preparations is assessed visually in comparison to untreated controls (herbicidal effect in percent: 100% effect=the plants have died, 0% effect=like control plants).

Lolium multiflorum = experiment: Herbicidal post-emergence action; conditions: post-emergence method; for herbicidal effect against LOLMU (Lolium multiflorum): 80 g/ha; for pest or weed control at 80 g/ha: Lolium multiflorum, 504 h, read-out: herbicidal effect against LOLMU (Lolium multiflorum)
Procedure: as §1

Setaria viridis = experiment: Herbicidal post-emergence action; conditions: post-emergence method; for herbicidal effect against SETVI (Setaria viridis): 80 g/ha; for pest or weed control at 80 g/ha: Setaria viridis, 504 h, read-out: herbicidal effect against SETVI (Setaria viridis)
Procedure: as §1

Alopecurus myosuroides = experiment: Herbicidal post-emergence action; conditions: post-emergence method; for herbicidal effect against ALOMY (Alopecurus myosuroides): 80 g/ha; for pest or weed control at 80 g/ha: Alopecurus myosuroides, 504 h, read-out: herbicidal effect against ALOMY (Alopecurus myosuroides)
Procedure: as §1

[1] = system: monocotylidonous and dicotylidonous weed and crop plants; experiment: Herbicidal post-emergence action (other test plants); conditions: post-emergence method; for herbicidal effect against AVEFA (Avena fatua): 80 g/ha; for pest or weed control at 80 g/ha: 504 h, Avena fatua, read-out: herbicidal effect against AVEFA (Avena fatua)
Procedure: as §1

SMILES	herbicidal effect against ECHCG (Echinochloa crus-galli) (Echinocloa crus-galli) [%]	herbicidal effect against LOLMU (Lolium multiflorum) (Lolium multiflorum) [%]	herbicidal effect against SETVI (Setaria viridis) (Setaria viridis) [%]	herbicidal effect against ALOMY (Alopecurus myosuroides) (Alopecurus myosuroides) [%]	herbicidal effect against AVEFA (Avena fatua) [1] [%]	pest or weed control at 80 g/ha (Echinocloa crus-galli) [%]	pest or weed control at 80 g/ha (Lolium multiflorum) [%]	pest or weed control at 80 g/ha (Setaria viridis) [%]	pest or weed control at 80 g/ha (Alopecurus myosuroides) [%]	pest or weed control at 80 g/ha [1] [%]
COc1cc(C)cc(C)c1C1=C(O)C2CC(=O)CC2C1=O (stereo not drawn) [I-a-46]	100	0	40	0	0	–	–	–	–	–
CCc1cc(C)cc(CC)c1C1=C(OC(=O)OC)C2CC3(CC2C1=O)SCCCS3 (stereo not drawn) [I-c-20]	100	100	100	90	90	–	–	–	–	–
Cc1cc(C)c(C2=C([O-])C3CC4(CC3C2=O)OCCCCO4)c(C)c1.[Na+] (stereo not drawn) [I-f-10]	90	100	90	100	80	–	–	–	–	–
CCOC(=O)OC1=C(c2c(C)cc(C)cc2C)C(=O)C2CC3(CC12)OCC(C)CO3 (mixture of isomers) [I-c-48]	90	100	80	20	20	–	–	–	–	–
Cc1cc(C)c(C2=C(OC(=O)CC(C)C)C3CC(=O)CC3C2=O)c(C)c1 (stereo not drawn) [I-b-56]	100	0	100	20	0	–	–	–	–	–
C#CCON=C1CC2C(=O)C(c3c(C)cc(C)cc3C)=C(OC(=O)OCC)C2C1 (racemic) [I-c-60]	100	80	0	20	0	–	–	–	–	–
CCOC(=O)OC1=C(c2c(C)cc(C)cc2C)C(=O)C2CC3(CC12)OCCCO3 (racemic) [I-c-47]	100	100	60	100	90	–	–	–	–	–
CCc1cc(C)cc(CC)c1C1=C(OC(=O)OC)[C@H]2C[C@@]3(COC(C)(C)O3)C[C@H]2C1=O [I-c-1]	–	–	–	–	–	60	100	40	100	60
CCc1cc(C)cc(CC)c1C1=C(OC(=O)COC)C2CC3(CC2C1=O)SCCCS3 (stereo not drawn) [I-b-10]	90	70	70	90	20	–	–	–	–	–
C=C1CC2C(=O)C(c3c(C)cc(C)cc3C)=C([O-])C2C1.[Na+] (stereo not drawn) [I-f-23]	90	60	80	0	0	–	–	–	–	–
CCc1cc(C)cc(CC)c1C1=C(O)C2CC3(CC2C1=O)OCCCS3 (mixture of isomers) [I-a-20]	100	100	90	90	80	–	–	–	–	–
CCc1cc(C)cc(CC)c1C1=C(O)[C@H]2CC3(C[C@H]2C1=O)SCCCS3 [I-f-1]	–	–	–	–	–	90	90	80	80	40
